Measurements as given in patent publication US6407237B1, “Crystal forms of 9-substituted hypoxanthine derivatives” (NeoTherapeutics, Inc., priority 2000, dated 2002).
Entries after “also recorded” stand apart in the source; their conditions may differ. One block for each compound: values may come before it.

What was measured:
[1] = Hydration and dehydration (interconversion) studies of crystal structures, checked by X-ray powder pattern; format: physicochemical; conditions: for crystal structure after incubation in humid chamber (H2O vapor) at 25° C. / crystal structure after incubation in humid chamber (H2O vapor) at 70° C.: 48 h
Description: X-ray powder patterns were measured with a β-Generator Philips PW 1120/90 equipped with a CuKα Guinier-de Wolff Camera No. 11 (Enraf-Nonius).
Starting from different crystal structures, hydration and dehydration studies were performed (FIG. 1, Table 2). The crystal structure designated Type I (lot NTA-107-B) is obtained by equilibration of Type II (lot NTA-107-A) with water vapor in a humid chamber, whereas Type III was generated by dehydration of Type I in a vacuum drying oven at elevated temperature (Tables 1 and 2). The X-ray powder patterns of the Type I and II crystal structures are not sensitive to small changes in the water content and appear uniform from batch to batch.
The well-resolved powder diagrams of these two forms indicate well ordered crystal lattice structures (FIG. 3). […] The manufacturing process leads to a water-soluble (5% w/v) crystalline product of the monopotassium salt of N-4-carboxyphenyl-3-(6-oxohydropurin-9-yl) propanamide monohydrate Type I (active pharmaceutical ingredient). N-4-carboxyphenyl-3-(6-oxohydropurin-9-yl) propanamide monopotassium salt exists, as known so far, in three different crystal structures (Types I-III) depending upon the water content.

[2] = Hygroscopicity of the crystal structure; format: physicochemical
[3] = format: physicochemical
Excerpt: The occurrence of polymorphic forms can be examined by various physico-chemical investigation techniques. The solubility measured under defined conditions can provide information regarding the occurrence of different crystal structures. However, the preferred technique for the investigation of the polymorphism of N-4-carboxyphenyl-3-(6-oxohydropurin-9-yl) propanamide monopotassium salt is the analysis of the X-ray diffraction powder diagrams, which allows the distinct crystal structures to be clearly distinguished by their characteristic powder patterns. The powder pattern, position, intensity and sharpness of the bands are dependent upon the crystal structure and the fine arrangement of the atoms in the crystal lattice, which in turn are both influenced by the content of crystal water. For this study, material from different batches of N-4-carboxyphenyl-3-(6-oxohydropurin-9-yl) propanamide monopotassium salt was used, either in the original or in a dry or wet state (Table 1).
In aqueous solutions prepared with material which was synthesized by the route designated “direct crystallization” a fine microcrystalline precipitate of the N-4-carboxyphenyl-3-(6-oxohydropurin-9-yl) propanamide free acid was formed after 2-3 min. Although the assay of K is 1.0 equivalent and although direct crystallized K-salt is isolated at equal or slightly higher pH (H 8.7) than K-salt synthesized from N-4-carboxyphenyl-3-(6-oxohydropurin-9-yl) propanamide free acid (pH 8.5), only the latter is completely soluble in water. […] The free acid precipitates and generates the di-K salt until its concentration is high enough to keep the precipitation and dissolution of the free acid at equilibrium. The solubility of N-4-carboxyphenyl-3-(6-oxohydropurin-9-yl) propanamide Type II (lot Am 960/a) in aqueous solution was measured as a function of temperature (FIG. 2). In the solubility curve a plateau is reached at 70° C. (17% w/w).

crystal structure after strong drying in vacuum oven ([1]; 140° C., 5 mbar, monopotassium salt monohydrate): Type III was obtained | hygroscopicity [2]: only slightly hygroscopic
Structure (SMILES): O.O=C(CCn1cnc2c(=O)[nH]cnc21)Nc1ccc(C(=O)[O-])cc1.[K+] [Type I, N-4-carboxyphenyl-3-(6-oxohydropurin-9-yl) propanamide monopotassium salt monohydrate]
crystal structure after incubation in humid chamber (H2O vapor) at 25° C. ([1]; monopotassium salt monohydrate): stable; also recorded: remains unchanged; also recorded: Type I | crystal structure after incubation in humid chamber (H2O vapor) at 70° C. ([1]; monopotassium salt monohydrate): stable; also recorded: remains unchanged; also recorded: Type I

solubility in aqueous solution as a function of temperature, plateau of solubility curve [3]: 17 % w/w | solubility in water [3]: about 10 % (w/v) | crystal structure after incubation in humid chamber (H2O vapor) at 25° C. ([1]; monopotassium salt): Type II
Structure (SMILES): O=C(CCn1cnc2c(=O)[nH]cnc21)Nc1ccc(C(=O)[O-])cc1.[K+] [Type II, N-4-carboxyphenyl-3-(6-oxohydropurin-9-yl) propanamide monopotassium salt]
crystal structure after incubation in humid chamber (H2O vapor) at 70° C. ([1]; monopotassium salt): interconversion of Type II into Type I crystal structure

crystal structure after incubation in humid chamber (H2O vapor) at 25° C. ([1]; monopotassium salt): turns completely into Type I
Structure (SMILES): O=C(CCn1cnc2c(=O)[nH]cnc21)Nc1ccc(C(=O)[O-])cc1.[K+] [Type III, N-4-carboxyphenyl-3-(6-oxohydropurin-9-yl) propanamide monopotassium salt]

solubility of the free acid in water [3]: extreme low solubility
Structure (SMILES): O=C(CCn1cnc2c(=O)[nH]cnc21)Nc1ccc(C(=O)O)cc1 [free acid, N-4-carboxyphenyl-3-(6-oxohydropurin-9-yl) propanamide]
